Experiment [1] addresses T1, PTPN2 (B16F10.4 cells) (Mus musculus, UniProt Q06180).
T1 construct: HiBiT; host or cells: B16F10.4
T1 sequence (Q06180 1-406): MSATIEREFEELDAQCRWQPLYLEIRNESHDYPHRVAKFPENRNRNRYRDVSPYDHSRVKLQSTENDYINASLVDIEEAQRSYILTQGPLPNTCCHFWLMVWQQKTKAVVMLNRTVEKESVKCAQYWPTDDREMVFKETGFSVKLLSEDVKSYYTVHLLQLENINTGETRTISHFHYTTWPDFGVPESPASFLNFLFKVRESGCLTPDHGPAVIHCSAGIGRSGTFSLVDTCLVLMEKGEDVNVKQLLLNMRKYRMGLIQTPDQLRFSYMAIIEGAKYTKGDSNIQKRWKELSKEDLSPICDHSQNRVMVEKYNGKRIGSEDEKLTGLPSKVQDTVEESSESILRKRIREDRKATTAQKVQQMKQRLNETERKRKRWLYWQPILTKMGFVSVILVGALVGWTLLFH
In words: HiBiT Degradation B16F10.4 PTPN2. The note with it: 24.0 hours. The format is cell-based. In general terms: With HiBiT, luminescence reflects the tagged protein that the partner subunit can reach.

The target of experiment [2] is T2, PTPN2 (HiBIT-PTPN2 in 293T.109 cells) (Homo sapiens, UniProt P17706).
T2 construct: expressed in transfected cells; host or cells: 293T.109 (293T WT from ATCC)
T2 sequence (P17706 1-415): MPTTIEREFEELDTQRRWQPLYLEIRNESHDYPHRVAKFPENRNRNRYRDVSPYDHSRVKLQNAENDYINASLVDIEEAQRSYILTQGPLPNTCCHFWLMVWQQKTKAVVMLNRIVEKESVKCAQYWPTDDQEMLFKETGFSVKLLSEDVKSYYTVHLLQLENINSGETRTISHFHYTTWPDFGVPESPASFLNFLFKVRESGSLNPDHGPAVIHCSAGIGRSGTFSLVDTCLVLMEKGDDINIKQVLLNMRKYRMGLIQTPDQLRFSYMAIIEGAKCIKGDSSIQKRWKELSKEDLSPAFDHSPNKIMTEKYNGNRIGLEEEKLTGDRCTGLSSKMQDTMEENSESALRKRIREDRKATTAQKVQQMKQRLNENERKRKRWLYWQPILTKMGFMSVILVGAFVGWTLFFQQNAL
The experiment can be described thus: HiBiT Degradation 293T.109 PTPN2 (Nano-Glo HiBiT Lytic Assay). Type of experiment: cell-based. The settings on record: 24.0 hours. The essentials: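 Degradation read-out: lytic HiBiT luminescence after 24 h treatment (37 °C, 5% CO2) of 5000 293T cells per well expressing HiBiT-fused PTPN2 from an N-terminal tag. Dosing was 11 points, half-log steps down from 10 μM, in duplicate; vehicle-treated and no-reagent wells served as controls.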

As a reminder, the DC50 is the concentration giving 50% degradation. Low readings indicate a more potent degrader, high ones a less potent degrader. In the case of `Cn1c(=O)n(C2CCC(=O)NC2=O)c2ccc(C3CCN(C(=O)Nc4cccc(CS(=O)(=O)N5CC[C@H](Nc6cccc(-c7sc(C(=O)O)c(OCC(=O)O)c7Cl)c6)CC5(C)C)c4)CC3(F)F)cc21` (stereo partly drawn) [Example 147, 3-(carboxymethoxy)-4-chloro-5-[3-[[(4S)-1-[[3-[[4-[1-(2,6-dioxo-3-piperidyl)-3-methyl-2-oxo-benzimidazol-5-yl]-3,3-difluoro-piperidine-1-carbonyl]amino]phenyl]methylsulfonyl]-2,2-dimethyl-4-piperidyl]amino]phenyl]thiophene-2-carboxylic acid], the DC50 in experiment [1] and in experiment [2] was under 50 nM throughout.

Take `CC(C)n1c(=O)n(C2CCC(=O)NC2=O)c2ccc(C3CCN(C(=O)Nc4cccc(CS(=O)(=O)N5CC[C@H](Nc6cccc(-c7sc(C(=O)O)c(OCC(=O)O)c7Cl)c6)CC5(C)C)c4)CC3(F)F)cc21` (stereo partly drawn) [Example 181, 3-(carboxymethoxy)-4-chloro-5-[3-[[(4S)-1-[[3-[[4-[1-(2,6-dioxo-3-piperidyl)-3-isopropyl-2-oxo-benzimidazol-5-yl]-3,3-difluoro-piperidine-1-carbonyl]amino]phenyl]methylsulfonyl]-2,2-dimethyl-4-piperidyl]amino]phenyl]thiophene-2-carboxylic acid]: the DC50 in experiment [1] and in experiment [2] was under 50 nM each time.

For `CC1(C)C[C@@H](Nc2cccc(-c3sc(C(=O)O)c(OCC(=O)O)c3Cl)c2)CCN1S(=O)(=O)Cc1cccc(NC(=O)N2CCN(C(=O)CCc3cccc4c3CN(C3CCC(=O)NC3=O)C4=O)CC2)c1` (stereo partly shown) [Example 64], the DC50 in experiment [1] and in experiment [2] was 200 to 1000 nM throughout.

As to `Cn1c(=O)n(C2CCC(=O)NC2=O)c2ccc([C@H]3CCN(C(=O)Nc4cccc(CS(=O)(=O)N5CC[C@H](Nc6cccc(-c7sc(C(=O)O)c(OCC(=O)O)c7Cl)c6)CC5(C)C)c4)C[C@@H]3F)cc21` (stereo partly shown) [Example 171], the DC50 in experiment [1] and in experiment [2] was under 50 nM in each case.

With `CC1(C)C[C@@H](Nc2cccc(-c3sc(C(=O)O)c(OCC(=O)O)c3Cl)c2)CCN1S(=O)(=O)Cc1cccc(NC(=O)CN2CCC(c3ccc4c5c(cccc35)C(=O)N4C3CCC(=O)NC3=O)CC2)c1` (stereo partly drawn) [Example 83, 3-(carboxymethoxy)-4-chloro-5-[3-[[(4S)-1-[[3-[[2-[4-[1-(2,6-dioxo-3-piperidyl)-2-oxo-benzo[cd]indol-6-yl]-1-piperidyl]acetyl]amino]phenyl]methylsulfonyl]-2,2-dimethyl-4-piperidyl]amino]phenyl]thiophene-2-carboxylic acid], the DC50 in experiment [1] is 50 to 200 nM; in experiment [2] it was under 50 nM.

Regarding `CC(C)n1c(=O)n(C2CCC(=O)NC2=O)c2ccc(C3CCN(CC(=O)Nc4cccc(CS(=O)(=O)N5CC[C@H](Nc6cccc(-c7sc(C(=O)O)c(OCC(=O)O)c7Cl)c6)CC5(C)C)c4)CC3)cc21` (stereo partly drawn) [Example 204, 3-(carboxymethoxy)-4-chloro-5-(3-(((4S)-1-((3-(2-(4-(1-(2,6-dioxopiperidin-3-yl)-3-isopropyl-2-oxo-2,3-dihydro-1H-benzo[d]imidazol-5-yl)piperidin-1-yl)acetamido)benzyl)sulfonyl)-2,2-dimethylpiperidin-4-yl)amino)phenyl)thiophene-2-carboxylic acid], the DC50 in experiment [1] and in experiment [2] was 50 to 200 nM throughout.

As to `CCn1nc(C2CCC(=O)NC2=O)c2ccc(C3CCN(C(=O)Nc4cccc(CS(=O)(=O)N5CC[C@H](Nc6cccc(-c7sc(C(=O)O)c(OCC(=O)O)c7Cl)c6)CC5(C)C)c4)CC3(F)F)cc21` (stereo partly drawn) [Example 200, 3-(carboxymethoxy)-4-chloro-5-[3-[[(4S)-1-[[3-[[4-[3-(2,6-dioxo-3-piperidyl)-1-ethyl-indazol-6-yl]-3,3-difluoro-piperidine-1-carbonyl]amino]phenyl]methylsulfonyl]-2,2-dimethyl-4-piperidyl]amino]phenyl]thiophene-2-carboxylic acid], the DC50 in experiment [1] and in experiment [2] was 50 to 200 nM each time.

In the case of `CC1(C)C[C@H](Nc2cccc(-c3sc(C(=O)O)c(OCC(=O)O)c3Cl)c2)CCN1S(=O)(=O)Cc1ccc(F)c(NC(=O)[C@H]2[C@@H]3CN(C(=O)CNc4cccc5c4CN(C4CCC(=O)NC4=O)C5=O)C[C@@H]32)c1` (stereo partly drawn) [Example 111, 3-(carboxymethoxy)-4-chloro-5-(3-(((4R)-1-((3-((1R,5S,6r)-3-((2-(2,6-dioxopiperidin-3-yl)-1-oxoisoindolin-4-yl)glycyl)-3-azabicyclo[3.1.0]hexane-6-carboxamido)-4-fluorobenzyl)sulfonyl)-2,2-dimethylpiperidin-4-yl)amino)phenyl)thiophene-2-carboxylic acid], the 50% degradation concentration (DC50) in experiment [1] was at least 1000 nM; in experiment [2] it was 200 to 1000 nM.

Regarding `CC1(C)C[C@@H](Nc2cccc(-c3sc(C(=O)O)c(OCC(=O)O)c3Cl)c2)CCN1S(=O)(=O)Cc1cccc(NC(=O)N2CCC(c3cnc4c(c3)c3ccccc3n4C3CCC(=O)NC3=O)CC2)c1` (stereo partly drawn) [Example 218, 3-(carboxymethoxy)-4-chloro-5-[3-[[(4S)-1-[[3-[[4-[9-(2,6-dioxo-3-piperidyl)pyrido[2,3-b]indol-3-yl]piperidine-1-carbonyl]amino]phenyl]methylsulfonyl]-2,2-dimethyl-4-piperidyl]amino]phenyl]thiophene-2-carboxylic acid], the 50% degradation concentration (DC50) in experiment [1] and in experiment [2] was 200 to 1000 nM in each case.

Take `CC1(C)C[C@@H](Nc2cccc(-c3sc(C(=O)O)c(OCC(=O)O)c3Cl)c2)CCN1S(=O)(=O)Cc1cccc(NC(=O)CNc2ccc3c(c2)CN(C2CCC(=O)NC2=O)C3=O)c1` (stereo partly drawn) [Example 37, 3-(carboxymethoxy)-4-chloro-5-[3-[[(4S)-1-[[3-[[2-[[2-(2,6-dioxo-3-piperidyl)-1-oxo-isoindolin-5-yl]amino]acetyl]amino]phenyl]methylsulfonyl]-2,2-dimethyl-4-piperidyl]amino]phenyl]thiophene-2-carboxylic acid]: the DC50 in experiment [1] and in experiment [2] was 200 to 1000 nM in each case.

As for `CC1(C)C[C@@H](Nc2cccc(-c3sc(C(=O)O)c(OCC(=O)O)c3Cl)c2)CCN1S(=O)(=O)Cc1cccc(NC(=O)C2CCN(C(=O)CNc3cccc4c3C(=O)N(C3CCC(=O)NC3=O)C4=O)CC2)c1` (stereo partly drawn) [Example 32, 3-(carboxymethoxy)-4-chloro-5-[3-[[(4S)-1-[[3-[[1-[2-[[2-(2,6-dioxo-3-piperidyl)-1,3-dioxo-isoindolin-4-yl]amino]acetyl]piperidine-4-carbonyl]amino]phenyl]methylsulfonyl]-2,2-dimethyl-4-piperidyl]amino]phenyl]thiophene-2-carboxylic acid], the values for the DC50 in experiment [1] and in experiment [2] were 200 to 1000 nM and 50 to 200 nM, respectively.

In the case of `Cn1c(=O)n(C2CCC(=O)NC2=O)c2ccc(C3CCN(C(=O)Nc4cccc(CS(=O)(=O)N5CC[C@H](Nc6cccc(-c7sc(C(=O)O)c(OCC(=O)O)c7Cl)c6)CC56CC6)c4)CC3)cc21` (stereo partly drawn) [Example 190, 3-(carboxymethoxy)-4-chloro-5-(3-(((7S)-4-((3-(4-(1-(2,6-dioxopiperidin-3-yl)-3-methyl-2-oxo-2,3-dihydro-1H-benzo[d]imidazol-5-yl)piperidine-1-carboxamido)benzyl)sulfonyl)-4-azaspiro[2.5]octan-7-yl)amino)phenyl)thiophene-2-carboxylic acid], the DC50 was 50 to 200 nM in experiment [1] and under 50 nM in experiment [2].

Regarding `Cn1c(=O)n(C2CCC(=O)NC2=O)c2ccc(C3CCN(CC(=O)Nc4cccc(CS(=O)(=O)N5CCC(Nc6cccc(-c7sc(C(=O)O)c(OCC(=O)O)c7Cl)c6)CC5)c4)CC3)cc21` (stereo not shown) [Example 55, 3-(carboxymethoxy)-4-chloro-5-[3-[[1-[[3-[[2-[4-[1-(2,6-dioxo-3-piperidyl)-3-methyl-2-oxo-benzimidazol-5-yl]-1-piperidyl]acetyl]amino]phenyl]methylsulfonyl]-4-piperidyl]amino]phenyl]thiophene-2-carboxylic acid], the DC50 in experiment [1] and in experiment [2] was 50 to 200 nM in each case.

In the case of `CC1(C)C[C@@H](Nc2cccc(-c3sc(C(=O)O)c(OCC(=O)O)c3Cl)c2)CCN1S(=O)(=O)Cc1cccc(NC(=O)C2CN(C(=O)CNc3ccc4c(c3)CN(C3CCC(=O)NC3=O)C4=O)C2)c1` (stereo partly drawn) [Example 57, 3-(carboxymethoxy)-4-chloro-5-[3-[[(4S)-1-[[3-[[1-[2-[[2-(2,6-dioxo-3-piperidyl)-1-oxo-isoindolin-5-yl]amino]acetyl]azetidine-3-carbonyl]amino]phenyl]methylsulfonyl]-2,2-dimethyl-4-piperidyl]amino]phenyl]thiophene-2-carboxylic acid], the DC50 in experiment [1] is at least 1000 nM; in experiment [2] it was 50 to 200 nM.

The values are drawn from patent US20250302815A1, “PROTEIN TYROSINE PHOSPHATASE TARGETING LIGANDS” (CALICO LIFE SCIENCES LLC, priority 2021, published 2025).
